Measured values as given in ChEMBL document CHEMBL1124763, “Nucleoside conjugates. 11. Synthesis and antitumor activity of 1-beta-D-arabinofuranosylcytosine and cytidine conjugates of thioether lipids” (1990).

How the values were obtained:
Mus musculus [1] = assay: Increase of life span was determined against Ip implanted L1210 / ara-C lymphoid leukemia in mice at a dose of 167 mg/kg per day; assay type: functional; settings: route intraperitoneal
Mus musculus [2] = assay: Increase of life span was determined against Ip implanted L1210 / ara-C lymphoid leukemia in mice at a dose of 300 mg/kg per day; assay type: functional; settings: route intraperitoneal
Mus musculus [3] = assay: Increase of life span was determined against Ip implanted L1210 / ara-C lymphoid leukemia in mice at a dose of 60 mg/kg per day; assay type: functional; settings: route intraperitoneal
Mus musculus [4] = assay: Increase of life span was determined against Ip implanted L1210 / 0 lymphoid leukemia in mice at a dose of 100 mg/kg per day after treatment 1-5; assay type: functional; settings: L1210/0, ip, route intraperitoneal
Mus musculus [5] = assay: Increase of life span was determined against Ip implanted L1210 / 0 lymphoid leukemia in mice at a dose of 300 mg/kg per day after treatment 1; assay type: functional; settings: L1210/0, ip, route intraperitoneal
Mus musculus [6] = assay: Range of survival days for antitumor activity against Ip implanted L1210 / 0 lymphoid leukemia in mice at a dose of 60 mg/kg per day after treatment 1-5;range is 16-37; assay type: functional; settings: route intraperitoneal
Mus musculus [7] = assay: Increase of life span was determined against Ip implanted L1210 / 0 lymphoid leukemia in mice at a dose of 300 mg/kg per day after treatment 5; assay type: functional; settings: L1210/0, ip, route intraperitoneal
Mus musculus [8] = assay: Range of survival days for antitumor activity against Ip implanted L1210 / ara-C lymphoid leukemia in mice at a dose of 167 mg/kg per day; assay type: functional; settings: route intraperitoneal
Mus musculus [9] = assay: Range of survival days for antitumor activity against Ip implanted L1210 / ara-C lymphoid leukemia in mice at a dose of 300 mg/kg per day; assay type: functional; settings: route intraperitoneal
Mus musculus [10] = assay: Range of survival days for antitumor activity against Ip implanted L1210 / ara-C lymphoid leukemia in mice at a dose of 60 mg/kg per day; assay type: functional; settings: route intraperitoneal
Mus musculus [11] = assay: Increase of life span was determined against Ip implanted L1210 / 0 lymphoid leukemia in mice at a dose of 400 mg/kg per day after treatment 1; assay type: functional; settings: L1210/0, ip, route intraperitoneal
Mus musculus [12] = assay: Increase of life span was determined against Ip implanted L1210 / 0 lymphoid leukemia in mice at a dose of 400 mg/kg per day after treatment 5; assay type: functional; settings: L1210/0, ip, route intraperitoneal
Mus musculus [13] = assay: Increase of life span was determined against Ip implanted L1210 / 0 lymphoid leukemia in mice at a dose of 60 mg/kg per day after treatment 1-5; assay type: functional; settings: L1210/0, ip, route intraperitoneal
Mus musculus [14] = assay: Range of survival days for antitumor activity against Ip implanted L1210 / 0 lymphoid leukemia in mice at a dose of 100 mg/kg per day after treatment 1-5;range is 14->45; assay type: functional; settings: route intraperitoneal
Mus musculus [15] = assay: Range of survival days for antitumor activity against Ip implanted L1210 / 0 lymphoid leukemia in mice at a dose of 300 mg/kg per day after treatment 1;range is 18-30; assay type: functional; settings: route intraperitoneal
Mus musculus [16] = assay: Range of survival days for antitumor activity against Ip implanted L1210 / 0 lymphoid leukemia in mice at a dose of 400 mg/kg per day after treatment 1;range is 16->45; assay type: functional; settings: route intraperitoneal
Mus musculus [17] = assay: Survival time treated / survival time (T/C) for antitumor activity against Ip implanted L1210 / 0 lymphoid leukemia in mice at a dose of 300 mg/kg per day after treatment 1;25/7; assay type: functional; settings: route intraperitoneal
Mus musculus [18] = assay: Survival time treated / survival time (T/C) for antitumor activity against Ip implanted L1210 / 0 lymphoid leukemia in mice at a dose of 100 mg/kg per day after treatment 1-5;36.5/8; assay type: functional; settings: route intraperitoneal
Mus musculus [19] = assay: Survival time treated / survival time (T/C) for antitumor activity against Ip implanted L1210 / 0 lymphoid leukemia in mice at a dose of 300 mg/kg per day after treatment 5;17/8; assay type: functional; settings: route intraperitoneal
Mus musculus [20] = assay: Survival time treated / survival time (T/C) for antitumor activity against Ip implanted L1210 / 0 lymphoid leukemia in mice at a dose of 400 mg/kg per day after treatment 1;27.5/7; assay type: functional; settings: route intraperitoneal
Mus musculus [21] = assay: Survival time treated / survival time (T/C) for antitumor activity against Ip implanted L1210 / 0 lymphoid leukemia in mice at a dose of 400 mg/kg per day after treatment 5;16.5/8; assay type: functional; settings: route intraperitoneal
Mus musculus [22] = assay: Survival time treated / survival time (T/C) for antitumor activity against Ip implanted L1210 / 0 lymphoid leukemia in mice at a dose of 60 mg/kg per day after treatment 1-5;26.5/8; assay type: functional; settings: route intraperitoneal
Mus musculus [23] = assay: Survival time treated/survival time tested (T/C) for antitumor activity against Ip implanted L1210 / ara-C lymphoid leukemia in mice at a dose of 300 mg/kg per day; assay type: functional; settings: route intraperitoneal
Mus musculus [24] = assay: Survival time treated/survival time tested (T/C) for antitumor activity against Ip implanted L1210 / ara-C lymphoid leukemia in mice at a dose of 60 mg/kg per day; assay type: functional; settings: route intraperitoneal
Mus musculus [25] = assay: Survival time treated/survival time tested (T/C) for antitumor activity against Ip implanted L1210 / ara-C lymphoid leukemia in mice at a dose of 167 mg/kg per day; assay type: functional; settings: route intraperitoneal
Mus musculus [26] = assay: Range of survival days for antitumor activity against Ip implanted L1210 / 0 lymphoid leukemia in mice at a dose of 300 mg/kg per day after treatment 5;range is 15-21; assay type: functional; settings: route intraperitoneal
Mus musculus [27] = assay: Range of survival days for antitumor activity against Ip implanted L1210 / 0 lymphoid leukemia in mice at a dose of 400 mg/kg per day after treatment 5;[…]; assay type: functional; settings: route intraperitoneal
Mus musculus [28] = assay: Increase of life span was determined against Ip implanted L1210 / 0 lymphoid leukemia in mice at a dose of 100 mg/kg per day after treatment 1; assay type: functional; settings: L1210/0, ip, route intraperitoneal
Mus musculus [29] = assay: Increase of life span was determined against Ip implanted L1210 / 0 lymphoid leukemia in mice at a dose of 200 mg/kg per day after treatment 1; assay type: functional; settings: L1210/0, ip, route intraperitoneal
Mus musculus [30] = assay: Range of survival days for antitumor activity against Ip implanted L1210 / 0 lymphoid leukemia in mice at a dose of 100 mg/kg per day after treatment 1; range is 9-10; assay type: functional; settings: route intraperitoneal
Mus musculus [31] = assay: Range of survival days for antitumor activity against Ip implanted L1210 / 0 lymphoid leukemia in mice at a dose of 200 mg/kg per day after treatment 1; range is 4-12; assay type: functional; settings: route intraperitoneal
Mus musculus [32] = assay: Survival time treated / survival time (T/C) for antitumor activity against Ip implanted L1210 / 0 lymphoid leukemia in mice at a dose of 200 mg/kg per day after treatment 1;7.5/8; assay type: functional; settings: route intraperitoneal
Mus musculus [33] = assay: Survival time treated / survival time (T/C) for antitumor activity against Ip implanted L1210 / 0 lymphoid leukemia in mice at a dose of 100 mg/kg per day after treatment 1;9.5/8; assay type: functional; settings: route intraperitoneal
Mus musculus [34] = assay: Range of survival days for antitumor activity against Ip implanted L1210 / 0 lymphoid leukemia in mice at a dose of 80 mg/kg per day after treatment 1-5; range is 14-19; assay type: functional; settings: route intraperitoneal
Mus musculus [35] = assay: Increase of life span was determined against Ip implanted L1210 / 0 lymphoid leukemia in mice at a dose of 80 mg/kg per day after treatment 1-5; assay type: functional; settings: L1210/0, ip, route intraperitoneal
Mus musculus [36] = assay: Range of survival days for antitumor activity against Ip implanted L1210 / 0 lymphoid leukemia in mice at a dose of 100 mg/kg per day after treatment 1- 5; range is 15-32; assay type: functional; settings: route intraperitoneal
Mus musculus [37] = assay: Range of survival days for antitumor activity against Ip implanted L1210 / 0 lymphoid leukemia in mice at a dose of 400 mg/kg per day after treatment 1; range is 11-15; assay type: functional; settings: route intraperitoneal
Mus musculus [38] = assay: Survival time treated / survival time (T/C) for antitumor activity against Ip implanted L1210 / 0 lymphoid leukemia in mice at a dose of 100 mg/kg per day after treatment 1-5;21.5/8; assay type: functional; settings: route intraperitoneal
Mus musculus [39] = assay: Survival time treated / survival time (T/C) for antitumor activity against Ip implanted L1210 / 0 lymphoid leukemia in mice at a dose of 400 mg/kg per day after treatment 1;14/8; assay type: functional; settings: route intraperitoneal
Mus musculus [40] = assay: Survival time treated / survival time (T/C) for antitumor activity against Ip implanted L1210 / 0 lymphoid leukemia in mice at a dose of 80 mg/kg per day after treatment 1-5;16/8; assay type: functional; settings: route intraperitoneal
Mus musculus [41] = assay: Increase of life span was determined against Ip implanted L1210 / 0 lymphoid leukemia in mice at a dose of 200 mg/kg per day after treatment 1-5; assay type: functional; settings: L1210/0, ip, route intraperitoneal
Mus musculus [42] = assay: Range of survival days for antitumor activity against Ip implanted L1210 / 0 lymphoid leukemia in mice at a dose of 400 mg/kg per day after treatment 1; range is 8-10; assay type: functional; settings: route intraperitoneal
Mus musculus [43] = assay: Range of survival days for antitumor activity against Ip implanted L1210 / 0 lymphoid leukemia in mice at a dose of 400 mg/kg per day after treatment 5; assay type: functional; settings: route intraperitoneal
Mus musculus [44] = assay: Range of survival days for antitumor activity against Ip implanted L1210 / 0 lymphoid leukemia in mice at a dose of 200 mg/kg per day after treatment 1-5; range is 15-17; assay type: functional; settings: route intraperitoneal
Mus musculus [45] = assay: Survival time treated for antitumor activity against Ip implanted L1210 / 0 lymphoid leukemia in mice at a dose of 400 mg/kg per day after treatment 1;8/7; settings: route intraperitoneal
Mus musculus [46] = assay: Survival time treated for antitumor activity against Ip implanted L1210 / 0 lymphoid leukemia in mice at a dose of 400 mg/kg per day after treatment 5;10/7; settings: route intraperitoneal
Mus musculus [47] = assay: Survival time treated for antitumor activity against Ip implanted L1210 / 0 lymphoid leukemia in mice at a dose of 200 mg/kg per day after treatment 1-5;16/7; settings: route intraperitoneal

`CCCCCCCCCCCCCCCCSCC(COP(=O)(O)OP(=O)(O)OC[C@H]1OC(n2ccc(N)nc2=O)[C@@H](O)[C@@H]1O)OC(=O)CCCCCCCCCCCCCCC` (mixture of isomers) was tested, and the ILS at 167 mg/kg/day (Mus musculus [1]) was 310%, the ILS at 300 mg/kg/day (Mus musculus [2]) was > 400% and the ILS at 60 mg/kg/day (Mus musculus [3]) was > 356%. For the same compound, the ILS at 100 mg/kg/day (Mus musculus [4]) was 356%, the ILS at 300 mg/kg/day (Mus musculus [5]) was 257% and the “Range of survival days” value (Mus musculus [6]) was 16. For the same compound, the ILS at 300 mg/kg/day (Mus musculus [7]) was 113%, the Range (Mus musculus [8]) was >7 and the Range (Mus musculus [9]) was >45. The Range (Mus musculus [10]) was >29, the ILS at 400 mg/kg/day (Mus musculus [11]) was 293% and the ILS at 400 mg/kg/day (Mus musculus [12]) was 106%. The ILS at 60 mg/kg/day (Mus musculus [13]) was 231%, the “Range of survival days” value (Mus musculus [14]) was >14 and the “Range of survival days” value (Mus musculus [15]) was 18. For the same compound, the “Range of survival days” value (Mus musculus [16]) was >16, the T/C (Mus musculus [17]) was 25 and the T/C (Mus musculus [18]) was 36.5. For the same compound, the T/C (Mus musculus [19]) was 17, the T/C (Mus musculus [20]) was 27.5 and the T/C (Mus musculus [21]) was 16.5. The T/C (Mus musculus [22]) was 26.5, the T/C (Mus musculus [23]) was >45 and the T/C (Mus musculus [24]) was >41. The T/C (Mus musculus [25]) was 41, the “Range of survival days” value (Mus musculus [26]) was 15 and the “Range of survival days” value (Mus musculus [27]) was 15.

With `CCCCCCCCCCCCCCCCCCSCC(COP(=O)(O)OP(=O)(O)OC[C@H]1OC(n2ccc(N)nc2=O)[C@@H](O)[C@@H]1O)OCC` (mixture of isomers) the ILS at 100 mg/kg/day (Mus musculus [28]) was 19%, the ILS at 200 mg/kg/day (Mus musculus [29]) was -6% and the “Range of survival days” value (Mus musculus [30]) was 9. For the same compound, the “Range of survival days” value (Mus musculus [31]) was 4, the T/C (Mus musculus [32]) was 7.5 and the T/C (Mus musculus [33]) was 9.5.

For `CCCCCCCCCCCCCCCCCCSCC(COP(=O)(O)OP(=O)(O)OC[C@H]1OC(n2ccc(N)nc2=O)[C@@H](O)[C@@H]1O)OCCCCCCCCCCCCCCCC` (mixture of isomers), the ILS at 100 mg/kg/day (Mus musculus [4]) was 169%, the “Range of survival days” value (Mus musculus [34]) was 14 and the ILS at 400 mg/kg/day (Mus musculus [11]) was 75%. For the same compound, the ILS at 80 mg/kg/day (Mus musculus [35]) was 100%, the “Range of survival days” value (Mus musculus [36]) was 15 and the “Range of survival days” value (Mus musculus [37]) was 11. It also gave a T/C (Mus musculus [38]) of 21.5, a T/C (Mus musculus [39]) of 14 and a T/C (Mus musculus [40]) of 16.

`Nc1ccn([C@@H]2O[C@H](CO)[C@@H](O)[C@@H]2O)c(=O)n1` [CYTARABINE] gave an ILS at 200 mg/kg/day (Mus musculus [41]) of 129%, an ILS at 400 mg/kg/day (Mus musculus [11]) of 14% and an ILS at 400 mg/kg/day (Mus musculus [12]) of 43%. For the same compound, the “Range of survival days” value (Mus musculus [42]) was 8, the “Range of survival days” value (Mus musculus [43]) was 10 and the “Range of survival days” value (Mus musculus [44]) was 15. The survival time (Mus musculus [45]) was 8 days, the survival time (Mus musculus [46]) was 10 days and the survival time (Mus musculus [47]) was 16 days.
